From patent US6262023A, “WD-40 derived peptides and uses thereof” (The Board of Trustees of the Leland Stanford Junior …, priority 1995, dated 2001)

Columns and labels:
[1] = tested on: PKC-mediated germinal vesicle breakdown (GVBD) in Xenopus oocytes; test: PKC-mediated Xenopus oocyte maturation (germinal vesicle breakdown, GVBD) after peptide microinjection; format: cell-based
Procedure: Exposure to insulin induces maturation in Xenopus oocytes via a PKC-dependent pathway (Smith, et al., 1992). The maturation response may be quantified by monitoring the appearance of a white spot in the animal hemisphere of the oocyte, indicating germinal vesicle breakdown (GVBD) and maturation. To assess the effects of RACK1 WD-40-derived peptides on insulin-induced PKC-mediated maturation, 50 nl of a 20 mM NaCl solution containing the indicated peptides [peptide I (SEQ ID NO:1; .circle-solid.), peptide rVI (SEQ ID NO:7; .box-solid.), or injection solution (.quadrature.)] […] One hour following the peptide injections, the oocytes were exposed to a solution containing insulin (8.25 μg/ml) for 2 minutes (t=0). 10-15 oocytes were used for each sample.
The data, representative of three independent experiments, are expressed as the percent of oocytes with GVBD following insulin exposure and are plotted as a function of time in FIG. 5.

βPKC = βPKC (Rattus norvegicus, UniProt P68403); test: Sensitivity of βPKC to Arg-C endopeptidase (nicking); format: biochemical; parameters: All the solutions contained 5 nM rat brain PKC in peptide overlay buffer; from tissue; host or cells: rat brain; details: 2.5 μg/ml PS and 50 μM CaCl2; peptide 10 μM; Arg-C 5 units/ml
Chain of βPKC (P68403 whole entry, the tested form may be a part): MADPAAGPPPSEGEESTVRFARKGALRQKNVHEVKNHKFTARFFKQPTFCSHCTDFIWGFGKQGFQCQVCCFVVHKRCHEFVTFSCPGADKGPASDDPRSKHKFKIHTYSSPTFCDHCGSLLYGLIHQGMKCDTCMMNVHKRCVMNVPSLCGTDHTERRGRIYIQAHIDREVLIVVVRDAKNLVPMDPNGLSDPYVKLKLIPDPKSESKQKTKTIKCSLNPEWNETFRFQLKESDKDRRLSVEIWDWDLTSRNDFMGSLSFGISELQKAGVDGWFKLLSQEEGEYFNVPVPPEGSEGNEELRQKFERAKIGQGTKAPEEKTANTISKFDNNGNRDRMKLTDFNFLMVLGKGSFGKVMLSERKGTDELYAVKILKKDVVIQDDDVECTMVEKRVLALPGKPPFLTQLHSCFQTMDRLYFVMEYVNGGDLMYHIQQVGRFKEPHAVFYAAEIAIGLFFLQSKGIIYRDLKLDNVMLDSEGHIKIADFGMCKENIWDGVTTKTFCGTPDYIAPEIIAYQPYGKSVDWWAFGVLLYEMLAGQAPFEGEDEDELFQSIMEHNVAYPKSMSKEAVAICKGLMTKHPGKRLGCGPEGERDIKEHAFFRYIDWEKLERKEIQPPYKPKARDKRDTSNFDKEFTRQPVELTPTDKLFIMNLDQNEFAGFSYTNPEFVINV
Description: Upon activation of PKC, a pseudosubstrate autoinhibitory sequence at the N-terminus of the molecule dissociates from the catalytic site and becomes sensitive to endopeptidase Arg-C (Orr, et al.). In the absence of PKC activators, exposure of the 80 kDa βPKC to endopeptidase Arg-C has no effect on the enzyme (see FIG. 7, lane 1). In the presence of the PKC activators PS, DG and calcium, however, exposure of βPKC to Arg-C results in a "nicking" of the PKC (i.e. limited proteolysis generating a 78 kDa fragment and several small fragments (see FIG. 7, lane 2)). Continued exposure to Arg-C results in the disappearance of βPKC (Orr, et al.). The present experiment tests whether peptides derived from the WD-40 region of RACK1 alter the sensitivity of βPKC to endopeptidase Arg-C.
The methods used to assay Arg-C sensitivity are a modification of methods described by Orr, et al. Rat brain PKC (~5 nM) was incubated at room temperature in 500 μl of 20 mM Tris-HCl buffer (pH 7.5) alone or with Arg-C (5 units/ml) in the presence or absence of the indicated peptides (final concentration 10 μM or as indicated), PS, DG, and calcium (as indicated). 50 μl aliquots were removed into 20 μl of sample buffer during the reaction as indicated (samples in all the lanes were incubated for 30 minutes, except lanes 5, and 6, which were incubated for 5 and 15 minutes, respectively). The samples were boiled for 10 minutes at 80° C. and loaded onto 8% SDS-PAGE. βPKC was detected by Western blot analysis using anti-βPKC antibodies as described in Examples 6 and 8.
PKC was incubated for the indicated time alone (lane 1) or in the presence of Arg-C (lanes 2-9), with DG (0.8 μg/ml), PS (50 μg/ml) and CaCl2 (1 mM; lane 2), with PS (50 μg/ml) and CaCl2 (1 mM; lane 3), with PS (2.5 μg/ml) and CaCl2 (50 μM; lane 4); with PS (2.5 μg/ml), CaCl2 (50 μM) and with either peptide rVI (SEQ ID NO:7; 10 μM; lanes 5-7), control peptide (SEQ ID NO: 9; lane 8) or with peptide I (SEQ ID) NO:1; lane 9).

PKC binding to RACK1 = test: Overlay / overlay-extraction assay: inhibition of PKC binding to recombinant RACK1 by peptides; parameters: species or system rat; details: 10 μM peptide preincubated with PKC isozyme mixture; compared with binding in the absence of added peptide; n=3
Procedure: Purified recombinant RACK1 protein (100-250 μg per lane, produced as detailed in Example 2) was subjected to SDS/PAGE and blotted onto nitrocellulose membranes (Ausubel). The nitrocellulose membranes were cut into strips, which were incubated for 0.5 hr in overlay buffer (Example 1) in the presence or absence of a mixture of PKC isozymes (α, β, γ, ε and .zeta., ~10 nM each final concentration) and PKC activators (60 μg/ml phosphatidylserine (PS), 2 μg/ml diacylglycerol (DG), and 1 mM CaCl2). Unbound material was removed by five washes, 5-min each, in overlay wash buffer. Where indicated, PKC activators were present during the incubation of PKC with the nitrocellulose strips. The conditions for each sample and corresponding results are presented in part D below.
The variation in the overlay protocol consisted of incubating the putative binding peptides with a mixture of PKC isozymes for 15 minutes at room temperature before the mixture was used to contact the nitrocellulose strips containing immobilized RACK1.
Nitrocellulose strips containing immobilized RACK1, that had been contacted with a solution containing a mixture of PKC isozymes, were washed and the area corresponding to the 36 kDa (RACK1-containing) band was cut out. The pieces (containing PKC/RACK1 complexes) were incubated with sample buffer for 10 minutes at 80° C. The sample buffer and the nitrocellulose pieces were then placed in wells in the PAGE gel and subjected to SDS-PAGE to elute the bound proteins. The gel was blotted onto nitrocellulose and a Western blot analysis was carried out using the mixture of antibodies (specific for PKC α, β, γ, δ, ε and .zeta. isozymes) described in Example 1 part B. Bound antibodies were detected by ^125 I-protein A.
Peptides derived from or homologous to WD-40 repeats of RACK1 were tested for their ability to inhibit PKC binding to recombinant RACK1. Binding of PKC to RACK1 was carried out using a variation of the overlay procedure described in Example 3 part B. In the experimental samples, peptides were incubated with a solution containing a mixture of rat brain PKC isozymes (~10 nM each) for 15 minutes at room temperature.
Following completion of the modified overlay protocol, the samples were subjected to the overlay-extraction protocol detailed in part B, above.

δ and εPKC isozymes = test: PKC isozyme translocation and degradation in cardiac myocytes; format: cell-based, rat; details: peptide introduced into cardiac myocytes
Description: This peptide-induced translocation was followed by degradation of δ and εPKC isozymes.

## peptide I: 15-residue peptide homologous to a sequence in the sixth WD-40 repeat of RACK1; PKC antagonist (KGDYEKILVALCGGN)
[1]; 50 nl of 50 μM peptide microinjected, insulin 8.25 μg/ml
  plateau of % GVBD following insulin exposure: 45-50 % GVBD
[1]; between 5 μm-500 μM
  dose dependence of effect on GVBD: dose-dependent
[1]; peptide microinjected, insulin
  fraction of oocytes exposed to insulin that reach maturation: 45-50%
βPKC
  nicking of βPKC by Arg-C (78 kDa fragment) at low concentrations of activators: nicking of βPKC did not occur
PKC binding to RACK1
  inhibition of PKC binding to recombinant RACK1: 81±6%
δ and εPKC isozymes; norepinephrine 2 μM
  effect on NE-induced translocation of PKC isozymes: inhibited
δ and εPKC isozymes
  degradation of δ and εPKC isozymes: nor does it induce PKC degradation
  translocation / distribution of δ and εPKC isozymes in the absence of hormone stimulation: does not affect PKC distribution
